Experimental data: patent US6265537A, “Thiodepsipeptides for combating endoparasites and a method for producing the same” (Bayer Aktiengesellschaft, priority 1997, dated 2001)

Tests used:
[1] = tested on: Haemonchus contortus; assay: In vivo nematode test Haemonchus contortus/sheep; conditions: sheep infected with Haemonchus contortus; applied orally and/or intravenously as pure active compound; complete cessation of worm egg excretion with the faeces after treatment
Method: Haemonchus contortus/Sheep Sheep which had been experimentally infected with Haemonchus contortus were treated after the prepotency time of the parasite had elapsed. The active compounds were applied orally and/or intravenously as pure active compound. The degree of effectiveness is determined by quantitatively counting the worm eggs which have been excreted with the faeces before and after the treatment. A complete cessation of egg excretion after the treatment means that the worms have been aborted or damaged to such an extent that they no longer produce eggs (dosis […]). Active compounds tested and effective dosage rates can be seen from the table which follows

[2] = tested on: Heterakis spumosa; assay: In vivo nematode test Heterakis spumosa/mouse; conditions: mice infected with Heterakis spumosa; dosage rate 50 mg/kg, applied orally and/or intraperitoneally on day 46 after infection; adult parasites in colon and caecum counted on day 54, compared with untreated control
Source text: Mice are experimentally infected with nematodes of the variety Heterakis spumosa. In order to infect the mice, 90 embryonate Heterakis spumosa eggs are applied orally.
After the prepotency time had elapsed, the suspended active compounds are applied orally and/or intraperitoneally on the 46th day after the infection.
The mice are selected on the 54th day after the infection. The adult parasites in the colon and caecum are counted with the aid of a microscope. The treatment results in the doses group are compared with the untreated control group.
Active compounds tested and effective dosage rates (dosis effectiva) can be seen from the table which follows.

Compound | Effective dosage rates in [mg/kg] (dosis effectiva) [1] | Reduction rate in [%] [2] [%]
Cyclo(N-methyl-L-leucyl-D-thiolactyl-N-methyl-L-leucyl-D-phenyllactyl-N-methyl-L-leucyl-D-lactyl-N-methyl-L-leucyl-D-phenyllactyl-) [Example 7] | 0.01 | –
CC(C)CC1C(=O)OC(Cc2ccc(N3CCOCC3)cc2)C(=O)N(C)C(CC(C)C)C(=O)OC(C)C(=O)N(C)C(CC(C)C)C(=O)OC(Cc2ccc(N3CCOCC3)cc2)C(=O)N(C)C(CC(C)C)C(=O)OC(C)C(=O)N1C [Cyclo(-MeLeu-D-Lac-MeLeu-D-4-MorPhLac-)2, cyclo(-N-methyl-L-leucyl-D-lactyl-N-methyl-L-leucyl-D-4-N-morpholino-phenyllactyl-N-methyl-L-leucyl-D-lactyl-N-methyl-L-leucyl-D-4-N-morpholinophenyllactyl-), reference compound] | 0.05 | –
Cyclo(N-methyl-L-leucyl-D-thiolactyl-N-methyl-L-leucyl-D4-fur-2-yl-methoxy)-phenyllactyl-N-methyl-L-leucyl-D-lactyl-N-methyl-L-leucyl-D-phenyllactyl-) [Example 12] | 0.01 | –
Cyclo(-N-methyl-L-leucyl-D-thiolactyl-N-melhyl-L-leucyl-D-4-N-morpholinophenylthiiolactyl-N-methyl-L-leucyl-D-thiolactyl-N-methyl-L-leucyl-D-4-N-morpholinophenylthiolactyl-) [Example 3] | 0.025 | –
CC(C)C[C@H]1C(=O)O[C@H](Cc2ccccc2)C(=O)N(C)[C@@H](CC(C)C)C(=O)O[C@H](C)C(=O)N(C)[C@@H](CC(C)C)C(=O)O[C@H](Cc2ccccc2)C(=O)N(C)[C@@H](CC(C)C)C(=O)O[C@H](C)C(=O)N1C [PF 1022A, cyclo(-N-methyl-L-leucyl-D-lactyl-N-methyl-L-leucyl-D-phenyllactyl-N-methyl-L-leucyl-D-lactyl-N-methyl-L-leucyl-D-phenyllactyl-), reference compound] | 0.25 | 0
Cyclo(N-methyl-L-leucyl-D-thiolactyl-N-methyl-L-leucyl-D-4-N-morpholinophenyllactyl-N-methyl-L-leucyl-D-lactyl-N-methyl-L-leucyl-D-4-N-morpholinophenyllactyl-) [Example 8] | 0.01 | –
Cyclo(-N-methyl-L-leucyl-D-thiolactyl-N-methyl-L-leucy-D-4-(pyrid-2-yl-methoxy)-phenylthiolactyl-N-methyl-L-leucy-D-thiolactyl-N-methyl-L-leucyl-D-4-(pyrid-2-yl-methoxy)-phenylthiolactyl-) [Example 6] | 0.01 | –
Cyclo(-N-methyl-L-leucyl-D-thiolactyl-N-methyl-L-leucyl-D-phenylthiolactyl- N-methyl-L-leucyl-D-thiolactyl-N-methyl-L-leucyl-D-phenylthiolactyl-) [Example 1] | 0.10 | 100
Cyclo(-N-methyl-L-leucyl-D-thiolactyl-N-methyl-L-leucyl-D-4-(pyrid-2-yl-methoxy)-phenyllactyl-N-methyl-L-keucyl-D-lactyl-N-methyl-L-leucyl-D-4-(pyrid- 2-yl-methoxy)-phenyllactyl-) [Example 10] | 0.01 | –
